Legend:
[1] = tested on: western flower thrips (Frankliniella occidentalis); experiment: Test method 5: sprayed cucumber leaf, western flower thrips larvae; assay type: in vivo; conditions: 144 h, read-out: mortality of insects
Procedure: (§1) Test compounds are made to a formulation according to a similar method to that described in the Formulation Example 5, and thereto is added water containing 0.03 v/v % of Shindain (registered trademark) to prepare a diluted solution containing a prescribed concentration of the test compound.
Cucumber (Cucumber sativus) seedling (on the developmental stage of the second true leaf) is planted in a cup, and the diluted solutions are sprayed into the seedling at a ratio of 10 mL/seedling. Thereafter, the second true leaf is cut, and the cut leaf was placed in the cup, and approximately twenty (20) of larvae of western flower thrips (Frankliniella occidentalis) larvae are released onto the leaf. After 6 days, the number of the surviving insects is examined and the mortality of insects is calculated by the following equation.

[2] = tested on: silverleaf whiteflies (Bemisia tabaci); experiment: Test method 6: foliar spray on tomato seedling with silverleaf whitefly larvae; conditions: in Solanum lycopersicum, 168 h, read-out: mortality of insects
[3] = tested on: brown planthoppers (Nilaparvata lugens); experiment: Test method 4: foliar spray on rice seedling, brown planthopper larvae; assay type: in vivo; conditions: 144 h, read-out: mortality of insects
Procedure: as §1
Rice (Oryza sativa) seedling (on the developmental stage of the second true leaf) is planted in a cup, and the diluted solutions are sprayed into the seedling at a ratio of 10 mL/seedling. Thereafter, twenty (20) of 3rd instar larvae of brown planthoppers (Nilaparvata lugens) are released onto the rice leaves. After 6 days, the number of the surviving insects is examined and the mortality of insects is calculated by the following equation.

[4] = tested on: cotton worm (Spodoptera litura); experiment: Test method 2: foliar spray on cabbage seedling, cotton worm larvae; assay type: in vivo; conditions: 144 h, read-out: mortality of insects
Procedure: as §1
(§2) Cabbage (Brassicae oleracea) seedling (on the developmental stage of the third to fourth true leaf) is planted in a cup, and the diluted solutions are sprayed into the seedling at a ratio of 20 mL/seedling. Thereafter, ten (10) cotton worm (Spodoptera litura) at the third instar larval stage are released. After 6 days, the number of the surviving insects is counted, and the mortality of insects is calculated by the following equation.

[5] = tested on: northern house mosquitos (Culex pipiens pipiens); experiment: Test method 8: coated container contact test, northern house mosquito female adults; assay type: in vivo; conditions: 24 h, read-out: mortality of insects
Procedure: The test compounds are dissolved with acetone containing a surfactant, and the solution was then poured into a container of 20 mL contents, and the solution was coating uniformly in the inner face of the container such that the test compound is made 10 mg/m^2, and the surfactant is made 40 mg/m^2, and the container is dried.
Five (5) of female adult of northern house mosquitos (Culex pipiens pipiens) are placed in the contained, and the contained is put the lid. After the passing of the prescribed times, the state of the northern house mosquitos are examined, and the mortality is calculated by the following equation.

[6] = tested on: southern root-knot nematode (Meloidogyne incognita); experiment: Test method 7: soil mixing and irrigation, tomato seedlings in nematode-polluted soil, root-knot index by Zeck; assay type: in vivo; conditions: 1,000 ppm
Procedure: Test compounds 60 mg are dissolved in acetone 600 μL containing Tween (Registered trade mark) by 5%, and thereto is added water to prepare a diluted solution containing a prescribed concentration of the test compound.
The diluted solution 20 mL are soil which is polluted with southern root-knot nematode (Meloidogyne incognita) 400 mL are mixed, and a root of healthy tomato seedlings (on the developmental stage of third to fourth true leaf) is transplanted in the soil. After the transplanting, the diluted solution 40 mL is irrigated onto soli of tomato seedlings. After 10 days, the roots are pull out from the soil, washed and the damage degree of the root (root-knot degree) is examined according to a root-knot index by Zeck (Zeck, W. M. (1971): Pflanzenschutz-Nachrichten. Bayer AG, 24, 141-144).
• 0: No root-knots is recognized. • 1: By careful observation, several small root-knots can be recognized. • 2: Several small root-knots can be easily confirmed similarly to 1. • 3: Many small root-knots are found, and some of which are fused. A function of the root is not almost lost. • 4: Many small root-knots are found, and some large ones are found. […]

[7] = tested on: cotton aphids (Aphis gossypii); experiment: Test method 3: foliar spray on cucumber seedling infested with cotton aphids; conditions: read-out: mortality of insects
[8] = tested on: cotton worm (Spodoptera litura); experiment: Test method 1: foliar spray on cabbage seedling, cotton worm larvae; assay type: in vivo; conditions: 144 h, read-out: mortality of insects
Procedure: The test compounds are made to a formulation according to a similar method to that described in the Formulation Example 5, and thereto is added water containing 0.03 v/v % of Shindain (registered trademark) to prepare a diluted solution containing a prescribed concentration of the test compound.
as §2

CC1=CC(=O)[C@H]2CC(=O)[C@H]3[C@](C)([C@@H]2C1)[C@H](Cl)[C@@]12OC(=O)C[C@]3(C)[C@]1(C)CC[C@]13C[C@@H](C)C[C@H](CN12)O3 [AA-1]
mortality at 200 ppm [1]: ≥ 90% | mortality at 200 ppm [2]: ≥ 90% | mortality at 200 ppm [3]: ≥ 90% | mortality at 200 ppm [4]: ≥ 80% | mortality at 10 mg/m2 [5]: ≥ 80% | root-knot index ([6]; 20 mL mixed with 400 mL soil plus 40 mL irrigation, tomato seedlings, after 10 days, untreated group index 4): 1 (By careful observation, several small root-knots can be recognized.) | formation of root-knot ([6]; versus untreated group): reduced a formation of root-knot | mortality at 200 ppm [7]: ≥ 90% | mortality at 200 ppm [8]: ≥ 80%
